Entries after “also recorded” stand apart in the source; their conditions may differ.

One assay has as its system isolated rat myocytes. In words: Nifedipine and KB-R7943 sensitive 45Ca influx. Type of assay: cell-based. On the procedure:
The reaction was stopped by adding 5 mM EGTA on ice and cells were washed and spun at 4000 rpm for 2 min (×3) to remove extracellular ^45Ca. Net intracellular counts per minute (cpm) of ^45Ca for each sample was determined by using a β-scintillation counter and the concentration of ^45Ca was calculated as described previously (20).

The subject of assay [1] is isolated rat cardiac myocytes. Put plainly: Sodium Green fluorescence (intracellular Na+). It counts as cell-based. On the procedure:
The final concentration of Sodium Green in each sample tube was 10 μM during the incubation. The myocytes were then transferred to 96-well plates (Nunc) and the measurement of Sodium Green fluorescence was carried out by excitation at 485 nm and quantifying emission at 535 nm using a VICTOR-II multilabel counter (PerkinElmer Life Sciences).

For assay [2], the system named is Spontaneously Hypertensive Heart Failure (SHHF) rats. Put plainly: Immunization of late-stage SHHF rats, heart function by echo. As to conditions: 14 months old SHHF rats, control rat died. It counts as in vivo. The method, then: Studies were also conducted on the ability of NKA alpha subunit peptides to induce a therapeutic immune response in late-stage Spontaneously Hypertensive Heart Failure (SHHF) rats. The SHHF rats used for this study were 14 months old with late-stage heart failure. The heart function was measured by echo and expressed as percent of fractional shortening (FS %). The initial heart functions were 26.0% and 28.0% for control SHHF rat and the one with immunization, respectively. […] The peptide with which the rats were immunized has the following amino acid sequence […] (SEQ ID NO:7), as disclosed in U.S. Pat. No. 7,754,210.

The test system of another assay is NKA β1 subunit. Put plainly: Specificity analysis by Western blotting. It counts as binding, pig, dog, rat. The note with it: PB2948. On the procedure:
Samples of purified rat and dog NKA, along with SDS-stripped pig α1 and β1 subunits (30 μg each) were mixed with electrophoresis sample buffer separately, boiled for 5 min, and loaded on freshly made 7.5% SDS-PAGE gel. Following electrophoresis, the samples were transferred from the SDS gel to a nitrocellulose membrane (0.45 μm). […] The membranes were then washed and incubated with secondary antibody (1:7500) for 1 hour. The color was then developed for visual analysis.
For orientation: A western blot detects proteins with antibodies after separation by electrophoresis.

For assay [3], the system named is isolated rat cardiac myocytes. In words: Rat myocyte contractility (cell shortening). It counts as cell-based. As to conditions: 0.1 mM PB2948 + 0.5 μM JY2948. An excerpt:
Rat ventricular myocytes were isolated as described (18). The contraction amplitude was indexed by the percentage shortening of cell length (19).

For `N=C(N)SCCc1ccc(OCc2ccc([N+](=O)[O-])cc2)cc1` [KB-R7943], the “effect on JY2948-induced 45Ca influx” value with isolated rat myocytes (KB-R7943 (5 μM)) was “failed to inhibit”. The “changes of 45Ca concentration compared with control cell background” value in the assay on isolated rat myocytes (KB-R7943 alone (504 [sic])) is reported as “No significant changes”. The “Sodium Green fluorescence intensity” value was found to be 99±10% in assay [1] (5 μM KB-R7943 alone, control 100) and 102±7.0% in assay [1] (30 μM KB-R7943 alone, control 100).

As to “DVEDSYGQQWTYEQR (chemically-synthesized antigen) [SEQ ID NO:7, NKA alpha subunit peptide used to immunize SHHF rats, disclosed in U.S. Pat. No. 7,754,210]”, the “late-stage SHHF rat cardiac function (fractional shortening, FS %)” value in assay [2] is “significantly improved”.

With “KERGEFNHERGER (listed as Rattus norvegicus) [PB2948]”, the “interaction between JY2948 and native β1 subunit in presence of peptide blocker” value in the assay on NKA β1 subunit is “completely abolished”. Also, the “JY2948-induced positive inotropic effect in the presence of peptide blocker” value in assay [3] was “completely eliminated”.

On to `C[C@@H]1O[C@@H](O[C@H]2C[C@@H](O)[C@]3(CO)[C@H]4[C@H](O)C[C@]5(C)[C@@H](C6=CC(=O)OC6)CC[C@]5(O)[C@@H]4CC[C@]3(O)C2)[C@H](O)[C@H](O)[C@H]1O` [ouabain], for which, in the assay on isolated rat myocytes, the “ouabain-induced 45Ca influx relative to JY2948/β1 subunit-induced influx” value is given as 4.4 fold, the “share of ouabain-induced 45Ca influx through LTCC” value is reported as “approximately 40%” and the “share of ouabain-induced 45Ca influx through NCX” value is given as roughly 60%. Besides, the 45Ca influx in the assay with isolated rat myocytes (ouabain 2.5 mM alone) came to 330±6.4 pCi. The “nifedipine-resistant 45Ca influx” value in the assay with isolated rat myocytes (ouabain + 10 μM nifedipine) is on record as 188±78 pCi. The “ouabain-induced 45Ca influx” value in the assay on isolated rat myocytes (ouabain + both nifedipine and KB-R7943) was “completely impeded; also recorded: completely abolished”. For the same molecule, the “Sodium Green fluorescence intensity” value in assay [1] (ouabain (2.5 mM)) was determined as 136±13%. Moreover, in assay [1] (ouabain + 5 μM KB-R7943), the “Sodium Green fluorescence intensity” value is recorded as 153±19%. For the same molecule, the “Sodium Green fluorescence intensity” value in assay [1] (ouabain + 30 μM KB-R7943) came to 151±23%.

(Values after patent US10214583B2, “Sodium pump antibody agonists and methods of treating heart disease using the same” (priority 2011, dated 2019).)
